How the values were obtained:
[1] = system: A2780 cells; assay: mitochondrial staining with the inactive (caged) form versus the active form; assay type: cell-based; details: 2uM, identical conditions
[2] = pH dependence of fluorescence at 520 nm of the active probe (pKa study); assay type: physicochemical; details: PBS buffer with 5% BSA, estimated
Method: The pH dependence for fluorescence at 520 nm of 5FA-PIP-Cy5, the active form of 5FA-PIP-Cy5-DA was measured with 5FA-PIP-Cy5 dissolved in a PBS buffer with 5% BSA. (see Figure 3). From this study the pKa of the active form was estimated to be 6.88. This value is within expectable range for the fluorescein moiety containing electron-donor amide group and is within the physiologically relevant range of 6.5 - 8.5.

[3] = system: A2780 cells; assay: mitochondrial pH of drug-treated cells, measured with 5FA-PIP-Cy5-DA; assay type: cell-based
Excerpt: The calibration curve for the ratio of 5Fluoro/Cy5 fluorescence was obtained using FCCP and a PBS-5% BSA buffer with A2780 cells in a manner analogous to the method described in Example 2 (see Figure 12). The quantifying of mitochondrial pH in the presence of the drug and after the drug was washed away allowed the distinction between interference with mitochondrial metabolism and general cytotoxicity. If the effect of the drug was primarily to affect mitochondrial metabolism it was expected that the mitochondrial pH would quickly return to the non-treated cell level following removal of the drug, providing the drug had no other significant cytotoxic effects. Conversely, if the effect of the drug were not reversed by the washing step, an observed alteration of mitochondrial pH could be interpreted at least partially as a downstream consequence of the general cytotoxicity of the drug. A2780 cells were cultured in 24-well microscopy glass bottom plates in RPMI medium, containing Glutamax with 10% FBS addition. The cells were treated with appropriate 800uM […] or 5uM cisplatin. […] If the drug was not washed away prior to staining, it remained present in the medium through the whole imaging time. Separate fluorescent images in green and deep red spectral channels were acquired. The florescence ratio was quantified by a specifically designed batch ImageJ plugin as described above. Statistical analysis was performed using 1-way ANOVA with Bonferroni-Holm post-hoc analysis.

[4] = system: mitochondria of A2780 ovarian cancer cell line; assay: fluorescein/Cy5 fluorescence ratio in stained live cells treated with nigericin or FCCP; assay type: cell-based; details: 300 nM FCCP or 2uM nigericin versus DMSO vehicle control; cells stained with 2 µM 5FA-PIP-Cy5-DA
Method: A2780 ovarian cancer cells were cultured in 24-well microscopy glass bottom plates in a CO2 incubator. […] Separate fluorescent images in green (488/520 nm) and deep red (640/660 nm) spectral channels were acquired on Visitron W1 spinning disk confocal microscope. The florescence ratio was quantified using a specifically designed batch ImageJ plugin. This software thresholds the pH-independent Cy5 channel, quantifies the fluorescence intensity in the thresholded image areas, and uses the thresholded mask to quantify the intensity of pH-dependent 5Fluo channel. The intensity ratio is then used to estimate the mitochondrial pH of the cells. […] Typical pH variations in mitochondria of A2780 ovarian cancer cell line are represented at Figure 4. Typical staining procedure is described further. […] All images are maximum intensity projection. […] The mitochondrial staining on Figure 4A is very homogeneous. […] The mitochondrial staining on Figure 4B is very heterogeneous, unlike the Figure 4A. Figure 4C represents the overlap image of Figure 4A and Figure 4B. Bluish hint Figure 4C corresponds to relatively high mitochondrial pH, reddish to relatively low mitochondrial pH. Figure 4D represents bright field image. […] Confocal images were acquired for control, FCCP- and nigericin-treated cell samples, and the ratio between fluorescein and Cy5 channel fluorescence was quantified.

[5] = system: mitochondria of A2780 ovarian cancer cell line; assay: probe calibration in defined-pH buffers: collapse of the mitochondrial pH gradient; assay type: cell-based; details: stained cells in high K+ buffers, pH range 6.73 to 8.36
Method: A2780 ovarian cancer cells were cultured in 24-well microscopy glass bottom plates in a CO2 incubator. Prior to imaging, the cells were stained with 2uM 5FA-PIP-Cy5-DA, and/or TMRM (20nM) for 30 min in bicarbonate-free DMEM medium to avoid extracellular pH fluctuations, then washed with the same medium (without 5FA-PIP-Cy5-DA) and imaged with confocal spinning disk microscopy at 60x magnification When TMRM was used, this dye was also present in the bicarbonate-free DMEM medium during the imaging of the cells. Separate fluorescent images in green (488/520 nm) and deep red (640/660 nm) spectral channels were acquired on Visitron W1 spinning disk confocal microscope. The florescence ratio was quantified using a specifically designed batch ImageJ plugin. This software thresholds the pH-independent Cy5 channel, quantifies the fluorescence intensity in the thresholded image areas, and uses the thresholded mask to quantify the intensity of pH-dependent 5Fluo channel. The intensity ratio is then used to estimate the mitochondrial pH of the cells. Calibration of the intensity ratio was achieved through the staining of A2780 cells in a series of PBS - 5% BSA buffers with defined pH, containing 20mM HEPES and 5uM FCCP, to equilibrate the mitochondrial pH with the pH of the buffer.
The stained cells were treated with FCCP in high K^+ buffers in a pH range of 6.73 to 8.36.

[6] = system: LT-HSC; assay: mitochondrial pH of hematopoietic stem cells in different culture conditions, measured with 5FA-PIP-Cy5-DA; assay type: cell-based, mice; details: LT-HSC cultured with 5 uM DMOG or IL-3 20 ng/mL and IL-6 100ng/mL, compared with basal medium, ST-HSC and MPP
Excerpt: For LT-HSC cells, three different culture conditions (basal medium, DMOG-induced chemical hypoxia and IL-3, IL-6 - induced differentiation) were examined. The calibration curve for the ratio of 5Fluoro/Cy5 fluorescence was obtained using FCCP and a PBS-5% BSA buffer with MPP cells in a manner analogous to the method described in Example 2 (see Figure 10). Fresh cells, extracted from bone marrow of 8-12 week old male mice were stained on ice for surface cell markers and sorted by FACS, according to the following phenotypes: LT-HSC Lin- cKit+ Sca1+ CD150+ CD34- CD48-; ST-HSC Lin- cKit+ Sca1 + CD150+ CD34+; MPP Lin- cKit+ Sca1 + CD150- CD34+. The cells were cultured in Hematopoietic Stemline II (Sigma) medium with addition of SCF and Flt-3 cytokines. For appropriate experiments, additionally 5 uM DMOG or IL-3 20 ng/mL and IL-6 100ng/mL cytokines were added. […] Separate fluorescent images in green and deep red spectral channels were acquired. The florescence ratio was quantified by a specifically designed batch ImageJ plugin as described above.

[7] = after the drug was washed away, treated one day with 800uM RAPTA-T or 5uM cisplatin, control cells pH 8.4
[8] = in the presence of the drug, treated one day with 800uM RAPTA-T or 5uM cisplatin, control cells pH 8.4

SMILES: CN1C(=CC=CC=CC2=[N+](CCCCCC(=O)N3CCN(CC(=O)Nc4ccc5c(c4)C(=O)OC54c5ccc(O)cc5Oc5cc(O)ccc54)CC3)c3ccccc3C2(C)C)C(C)(C)c2ccccc21 [5FA-PIP-Cy5]
- staining of mitochondria [1]: absolutely no staining of mitochondria
- pKa of the active form [2]: 6.88

SMILES: N.N.[Cl][Pt][Cl] [cisplatin]
- mitochondrial pH [3, 7]: 8.0
- mitochondrial pH [3, 8]: 7.8

SMILES: CC[C@H]1/C=C/C=C/C[C@@H](C)[C@H](O)[C@@](C)(O)C(=O)[C@@H](C)[C@H](O)[C@@H](C)C(=O)[C@@H](C)[C@H](O)[C@@H](C)/C=C/C(=O)O[C@@H]2[C@H](C)[C@H](CC1)O[C@]1(CC[C@H](C)[C@H](C[C@@H](C)O)O1)[C@H]2C [oligomycin]
- mitochondrial pH ([3]; addition of 10µm oligomycin, increase from 8.4): around 8.5

SMILES: CO[C@@H]1C[C@@H](C[C@H]2CC[C@H](C)[C@H]([C@@H](C)C(=O)O)O2)O[C@]2(O[C@](C)([C@H]3CC[C@@](C)([C@@H]4O[C@@H]([C@H]5O[C@@](O)(CO)[C@H](C)C[C@@H]5C)C[C@@H]4C)O3)C[C@H]2C)[C@@H]1C [nigericin]
- 5Fluo-Cy5 ratio [4]: clear measurable decrease
- collapse of the mitochondrial pH gradient [5]: no full gradient collapse

SMILES: N#CC(C#N)=NNc1ccc(OC(F)(F)F)cc1 [FCCP, carbonylcyanide-4-trifluoromethoxyphenylhydrazone]
- 5Fluo-Cy5 ratio [4]: clear measurable decrease
- collapse of the mitochondrial pH gradient [5]: full collapse of the mitochondrial pH gradient

SMILES: Cc1ccccc1.[Cl][Ru]([Cl])[PH]12CN3CN(CN(C3)C1)C2 [RAPTA-T]
- mitochondrial pH [3, 7]: 8.4
- mitochondrial pH [3, 8]: 8.0

SMILES: COC(=O)CNC(=O)C(=O)OC [DMOG]
- average mitochondrial pH [6]: the same level of average mitochondrial pH

Reference: patent publication EP3543705A1, “MITOCHONDRIAL PH PROBE” (priority 2018, dated 2019)
